In article PMC4706797 (Journal of pharmaceutical sciences, 2015):

Legend:
cyclin D1 = test: Western blot, cyclin D1 expression in MDA-MB-231 cells; format: cell-based; conditions: MDA-MB-231, DTX 0.1 μM and/or 1 μM PPL, 48 hr, densitometry
[1] = In vivo pharmacokinetic in rats; set-up: species or system Sprague Dawley rats
MDA-MB-231 cells = test: In vitro migration; format: cell-based
survivin = test: Western blot, survivin expression in MDA-MB-231 cells; format: cell-based; conditions: MDA-MB-231, DTX 0.1 μM and/or 1 μM PPL, 48 hr, densitometry
Bcl-2 = test: Western blot, Bcl-2 expression in MDA-MB-231 cells; format: cell-based; conditions: MDA-MB-231, DTX 0.1 μM and/or 1 μM PPL, 48 hr, densitometry
MDA-MB-231 = test: Cytotoxicity assay; format: cell-based; conditions: Homo sapiens, MDA-MB-231, 48 h, read-out: IC50 (μM) DTX only
HCC70 = test: Cytotoxicity assay; format: cell-based; conditions: Homo sapiens, HCC70, 48 h, read-out: IC50 (μM) DTX only
HS578T = test: Cytotoxicity assay; format: cell-based; conditions: Homo sapiens, Hs-578T, 48 h, read-out: IC50 (μM) DTX only
HCC1806 = test: Cytotoxicity assay; format: cell-based; conditions: Homo sapiens, HCC1806, 48 h, read-out: IC50 (μM) DTX only
p53 = test: Western blot, p53 expression in MDA-MB-231 cells; format: cell-based; conditions: MDA-MB-231, DTX 0.1 μM and/or 1 μM PPL, 48 hr, densitometry
MDA-MB-468 = test: Cytotoxicity assay; format: cell-based; conditions: Homo sapiens, MDA-MB-468, 48 h, read-out: IC50 (μM) DTX only
P-gp = P-gp (Homo sapiens, UniProt P08183); test: Caco-2 uptake study of P-gp substrates; conditions: Caco-2 cells, 50 μM PPL or verapamil
P-gp, sequence (P08183 whole entry): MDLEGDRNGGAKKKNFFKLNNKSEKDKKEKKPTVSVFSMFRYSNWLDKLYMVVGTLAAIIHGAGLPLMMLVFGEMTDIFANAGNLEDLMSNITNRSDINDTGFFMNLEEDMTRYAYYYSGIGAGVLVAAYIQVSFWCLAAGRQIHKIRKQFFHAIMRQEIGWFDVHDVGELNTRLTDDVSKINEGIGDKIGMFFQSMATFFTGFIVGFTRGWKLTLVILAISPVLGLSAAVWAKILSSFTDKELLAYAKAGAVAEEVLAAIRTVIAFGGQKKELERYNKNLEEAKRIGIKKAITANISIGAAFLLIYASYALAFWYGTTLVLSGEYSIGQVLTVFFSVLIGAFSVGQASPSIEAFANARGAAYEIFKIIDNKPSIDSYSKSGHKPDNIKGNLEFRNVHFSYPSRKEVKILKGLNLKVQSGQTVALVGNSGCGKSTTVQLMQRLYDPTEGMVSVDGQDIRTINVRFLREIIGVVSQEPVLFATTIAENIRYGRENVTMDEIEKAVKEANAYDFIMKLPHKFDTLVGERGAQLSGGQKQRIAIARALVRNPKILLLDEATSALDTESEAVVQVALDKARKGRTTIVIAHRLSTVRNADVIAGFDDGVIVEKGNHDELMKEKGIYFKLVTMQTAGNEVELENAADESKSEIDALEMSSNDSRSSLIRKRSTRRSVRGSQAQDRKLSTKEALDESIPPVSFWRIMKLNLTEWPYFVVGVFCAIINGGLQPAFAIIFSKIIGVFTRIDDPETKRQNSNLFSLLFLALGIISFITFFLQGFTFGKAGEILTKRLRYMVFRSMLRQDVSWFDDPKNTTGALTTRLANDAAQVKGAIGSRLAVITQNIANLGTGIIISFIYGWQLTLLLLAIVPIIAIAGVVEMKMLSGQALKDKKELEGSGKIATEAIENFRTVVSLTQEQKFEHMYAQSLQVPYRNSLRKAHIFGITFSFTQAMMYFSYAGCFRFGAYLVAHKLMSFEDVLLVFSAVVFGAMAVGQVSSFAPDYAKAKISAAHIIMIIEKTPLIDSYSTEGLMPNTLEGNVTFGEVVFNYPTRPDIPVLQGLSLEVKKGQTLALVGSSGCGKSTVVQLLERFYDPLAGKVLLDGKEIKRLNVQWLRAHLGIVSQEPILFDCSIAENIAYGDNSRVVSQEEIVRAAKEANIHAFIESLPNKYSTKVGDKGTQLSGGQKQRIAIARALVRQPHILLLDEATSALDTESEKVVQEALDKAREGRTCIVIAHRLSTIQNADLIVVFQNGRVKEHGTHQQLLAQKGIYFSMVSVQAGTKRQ

CYP3A4 = conditions: 50 μM PPL or CYA, 5 μM TST, human liver microsomes, over 60 min
[2] = tested on: triple negative breast cancer (TNBC) cell lines; test: Cytotoxicity in TNBC cell lines; format: cell-based
[3] = oral co-administration with the taxane; cited from earlier work
[4] = Sprague Dawley, rat, plasma, iv, 5 mg/kg

SMILES: CC(=O)O[C@@]12CO[C@@H]1C[C@H](O)[C@@]1(C)C(=O)[C@H](O)C3=C(C)[C@@H](OC(=O)[C@H](O)[C@@H](NC(=O)OC(C)(C)C)c4ccccc4)C[C@@](O)([C@@H](OC(=O)c4ccccc4)[C@H]21)C3(C)C [DTX, Docetaxel]
- cyclin D1 relative expression reduced compared to untreated control (cyclin D1): 0.8 fold
- Absolute BA ([1]; SD rats, oral DTX 10 mg/kg (PPL 50 mg/kg where co-administered) vs IV 5 mg/kg): 9.26%
- time after which DTX plasma concentration was non-detectable ([1]; SD rats, oral administration): 8 h
- AUC [1, 4]: 5290 ± 1100 ng·h/mL
- Cmax [1, 4]: 6100 ± 1700 ng/mL
- MRT [1, 4]: 1.99 ± 0.36 h
- half-life [1, 4]: 6.67 ± 1.6 h
- percent bridging of scratch area (MDA-MB-231 cells; MDA-MB-231, 48 h, 0.1 μM DTX (combination with 1 μM PPL)): 49.3%
- percent bridging of scratch area (MDA-MB-231 cells; MDA-MB-231, 48 h, 0.4 μM DTX (combination with 1 μM PPL)): 33.8%
- survivin expression down regulated compared to control (survivin): 1.03 fold
- Bcl-2 expression reduced compared to untreated control (Bcl-2): 2.59 fold
- IC50 (MDA-MB-231): 0.458 ± 0.081 µM
- IC50 (HCC70): 0.019 ± 0.008 µM
- IC50 (HS578T): 0.077 ± 0.013 µM
- IC50 (HCC1806): 0.0022 ± 0.001 µM
- increase in expression of p53 compared to untreated control (p53): 1.2 fold
- IC50 (MDA-MB-468): 0.36 ± 0.069 µM

SMILES: COc1cc(/C=C/C(=O)N2CCC=CC2=O)cc(OC)c1OC [PPL, Piperlongumine]
- cyclin D1 relative expression reduced compared to untreated control (cyclin D1): 2.10 fold
- intracellular uptake of R123 (green fluorescence intensity) (P-gp; 1 μM rhodamine 123, 90 min, qualitative): green fluorescence intensity was higher
- higher intracellular accumulation (uptake) of DTX (P-gp; 5 μM DTX, 90 min): 1.34 fold
- percent bridging of migration area (MDA-MB-231 cells; MDA-MB-231, 48 h, 1 μM PPL alone): comparable to control
- anti-migration effect (MDA-MB-231 cells; PPL at concentration below 4 μM): no anti-migration effect
- survivin expression down regulated compared to control (survivin): 1.19 fold
- reduction in TST metabolism (CYP3A4): ~50%
- Bcl-2 expression reduced compared to untreated control (Bcl-2): 2.74 fold
- cytotoxicity ([2]; PPL at 1 μM): no cytotoxcity
- cell killing ([2]; PPL below 4 μM): not shown a significant cell killing
- increase in expression of p53 compared to untreated control (p53): 1.1 fold

SMILES: O=C(/C=C/C=C/c1ccc2c(c1)OCO2)N1CCCCC1 [piperine]
- anticancer and synergistic effect with docetaxel ([2]; in vitro studies, data not shown): did not show potent anticancer and synergistic effect

SMILES: CC(C)c1nc(CN(C)C(=O)N[C@H](C(=O)N[C@@H](Cc2ccccc2)C[C@H](O)[C@H](Cc2ccccc2)NC(=O)OCc2cncs2)C(C)C)cs1 [ritonavir]
- increase in plasma concentrations of docetaxel [3]: 7.3 fold
- increase in plasma concentrations of paclitaxel [3]: 2.5 fold
